Data taken from article PMC8243516, “Inhibition of lysosomal phospholipase A2 predicts drug-induced phospholipidosis” (Journal of Lipid Research, 2021).
Several values for one entry are separate records, joined by “and”; a condition that tells them apart may be missing. Equal entries are not always repeated. Where two headings read alike, the source gives them in different places.

Key:
[1] = cited from earlier work
LPLA2 = target: T1, LPLA2 (Mus musculus, UniProt Q8VEB4); experiment: LPLA2 thermal stability measurement (SYPRO Orange Tm); assay type: binding
T1 construct: purchased Proteos Inc. (Kalamazoo, MI)
T1 sequence (Q8VEB4 34-412): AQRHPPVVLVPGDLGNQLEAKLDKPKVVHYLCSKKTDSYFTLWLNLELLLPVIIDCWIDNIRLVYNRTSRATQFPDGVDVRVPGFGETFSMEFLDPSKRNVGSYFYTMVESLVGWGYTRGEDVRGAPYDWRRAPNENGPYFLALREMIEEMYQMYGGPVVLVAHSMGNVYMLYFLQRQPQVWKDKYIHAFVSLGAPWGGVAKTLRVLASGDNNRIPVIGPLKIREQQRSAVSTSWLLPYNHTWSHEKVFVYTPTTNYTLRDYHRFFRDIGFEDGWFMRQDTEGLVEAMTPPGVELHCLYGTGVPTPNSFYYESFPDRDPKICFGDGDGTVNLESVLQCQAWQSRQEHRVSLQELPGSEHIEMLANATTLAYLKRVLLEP

MDCK cells = experiment: Screening phospholipidosis assay (LipidTOX Red / NucBlue Live fluorescence ratio); conditions: LipidTOX Red to NucBlue Live fluorescence ratio, 24 h, 15 μM
[2] = target: T2, recombinant mouse LPLA2 (PLA2G15) (Mus musculus, UniProt Q8VEB4); experiment: Transacylase activity of LPLA2 (1-O-acyl-N-acetylsphingosine synthase, cell-free liposome assay); assay type: biochemical
T2 construct: purchased Proteos Inc. (Kalamazoo, MI)
T2 sequence (Q8VEB4 34-412): T1 sequence (Q8VEB4 34-412)

phospholipidosis = phospholipidosis reported in vitro; Refs of Table 1; cited from earlier work
[3] = ref Pubchem and chEMBL database
[4] = LPLA2 dependent 1-O-acyl N-acetylsphingosine synthase activity, read-out: LPLA2 IC50
[5] = 1-O-acyl N-acetylsphingosine synthase activity, pH 4.5, DOPC/sulfatide liposomes, read-out: LPLA2 IC50
[6] = ref Pubchem and chEMBL databases

| Compound | pKa (basic) [1, 3] | (ΔTm)c-(ΔTm)d, difference in melting temperature of LPLA2 alone or in the presence of drug (LPLA2; N=3 ± SD) | Ratio (15 μM) (MDCK cells) | (ΔTm)c-(ΔTm)d, difference in melting temperature of LPLA2 alone or in the presence of drug (LPLA2) | IC50 [2, 4] | IC50 [2, 5] | In Vitro PLD (phospholipidosis) | pKa (basic) [1, 6] | LPLA2 inhibition (in words) ([2]; acyl transferase activity) | IC50 ([2]; LPLA2 IC50, 1-O-acyl N-acetylsphingosine synthase activity, pH 4.5, DOPC/sulfatide liposomes) |
| --- | --- | --- | --- | --- | --- | --- | --- | --- | --- | --- |
| Cn1c(=O)[nH]c2ncn(C)c2c1=O [1,7-Dimethylxanthine] | 13.5 | 0 °C | 0.55 |  |  |  |  |  |  |  |
| Cl.NCCc1ccc(O)c(O)c1 [3-Hydroxytyramine hydrochloride] |  |  | 0.91 | 0.75 ± 0.0 °C |  |  |  |  |  |  |
| NCCc1cc(O)c(O)cc1O [6-Hydroxydopamine] |  | -0.14 ± 0.1 °C | 0.93 |  |  |  |  |  |  |  |
| Oc1ncnc2[nH]ncc12 [Allopurinol] | 2.57 | 0.67 ± 0.2 °C | 0.37 |  |  |  |  |  |  |  |
| CCN1CCCC1CNC(=O)c1cc(S(=O)(=O)CC)c(N)cc1OC (centres unmarked) [Amisulpride] | 7.05 | 0 °C | 0.08 |  | 1920 µM |  |  |  |  |  |
| O=C(CCCN1CCN(c2ccccn2)CC1)c1ccc(F)cc1 [Azaperone] | 7.16 | 0.93 ± 0.1 °C | 0.43 |  |  |  |  |  |  |  |
| CN(Cc1ccc(C(C)(C)C)cc1)Cc1cccc2ccccc12 [Butenafine] | 9.23 | -2.22 ± 0.3 °C | 0.31 |  | 41.2 µM |  |  |  |  |  |
| Clc1cccc(Cl)c1N=C1NCCN1 [Clonidine] | 8.16 | -0.62 ± 0.0 °C | 0.25 |  |  |  |  |  |  |  |
| O=C1NCC2(CCN(CCc3ccccc3)CC2)O1 [Fenspiride] | 9.37 | -1.67 ± 1.0 °C | 0.07 |  |  |  |  |  |  |  |
| CC(COc1ccccc1)NC(C)C(O)c1ccc(O)cc1 (centres unmarked) [Isoxsuprine] | 9 | 1.1 ± 0.0 °C | 1.22 |  |  |  |  |  |  |  |
| COC(=O)C1=C(C)NC(C)=C(C(=O)OC(C)(C)CN(C)CCC(c2ccccc2)c2ccccc2)C1c1cccc([N+](=O)[O-])c1 (centres unmarked) [Lercanidipine, 3-{1-[(3,3-diphenylpropyl)(methyl)amino]-2-methylpropan-2-yl} 5-methyl 2,6-dimethyl-4-(3-nitrophenyl)-1,4-dihydropyridine-3,5-dicarboxylate] |  | 0.21 ± 0.3 °C |  |  |  | 37.2 µM | Yes | 9.36 |  |  |
| CN(CCCN1c2ccccc2CCc2ccccc21)CC(=O)c1ccc(Cl)cc1 [Lofepramine, 2-[(3-{2-azatricyclo[9.4.0.0ˆ{3,8}]pentadeca-1(15),3,5,7,11,13-hexaen-2-yl}propyl) (methyl)amino]-1-(4-chlorophenyl) ethan-1-one] |  | 0 °C |  |  |  | 13.2 µM | Yes | 6.53 |  |  |
| OC[C@@H](O)[C@@H](O)[C@H](O)[C@H](O)CO [Mannitol, (2R,3R,4R,5R)-hexane-1,2,3,4,5,6-hexol] |  | 1.0 ± 0.0 °C |  |  |  | 160 µM | Yes | 12.3 |  |  |
| CN1CCc2c(c3ccccc3n2Cc2ccccc2)C1 [Mebhydrolin] | 6.7 |  | 2.54 |  | 146 µM |  |  |  |  |  |
| Cc1ccc(Cl)c(Nc2ccccc2C(=O)O)c1Cl [Meclofenamic acid] | -3.6 | -0.23 ± 0.1 °C | 0.52 |  |  |  |  |  |  |  |
| COc1ccnc(C[S+]([O-])c2nc3ccc(OC(F)F)cc3[nH]2)c1OC (centres unmarked) [Pantoprazole, 6-(difluoromethoxy)-2-[(3,4-dimethoxypyridin-2-yl)methanesulfinyl] -1H-1,3-benzodiazole] |  | 0.25 ± 0.1 °C |  |  |  | 6.23 µM | Yes | 3.55 |  |  |
| O=C1NC(=O)C(c2ccccc2)(c2ccccc2)N1 [Phenytoin] |  | 0.13 ± 0.1 °C | 0.38 |  | 60 µM |  |  |  |  |  |
| O=c1[nH]c2ccccc2n1C1CCN(CCCC(c2ccc(F)cc2)c2ccc(F)cc2)CC1 [Pimozide, 1-{1-[4,4-bis(4-fluorophenyl)butyl]piperidin-4-yl}-2,3-dihydro-1H-1,3-benzodiazol-2-one] |  |  |  | 0.26 ± 0.0 °C |  | 10.6 µM | Yes | 8.38 |  |  |
| Cc1nc2ccccn2c(=O)c1CCN1CCC(C(=O)c2ccc(F)cc2)CC1 [Pirenperone, 3-[2-[4-(4-Fluorobenzoyl)-1-piperidinyl]ethyl]-2-methyl-4H-pyrido-[1,2-a] pyrimidin-4-one] |  | 0.79 ± 0.0 °C and 0.79 ± 0.1 °C |  |  |  | 233 µM | Yes | 8.02 |  |  |
| OC(CCN1CCCCC1)(c1ccccc1)c1ccccc1 [Pridinol, 1,1-diphenyl-3-(piperidin-1-yl)propan-1-ol] |  | 0 °C |  |  |  | 285 µM | Yes | 9.34 |  |  |
| CC(=O)[C@H]1CC[C@H]2[C@@H]3CCC4=CC(=O)CC[C@]4(C)[C@H]3CC[C@]12C [Progesterone, (1S,3aS,3bS,9aR,9bS,11aS)-1-acetyl-9a,11a-dimethyl-1H,2H,3H, 3aH,3bH,4H,5H, 7H,8H,9H,9 aH,9bH, 10H,11H,11aH-cyclopenta [a] phenanthren-7-one] |  | 0.61 ± 0.1 °C |  |  |  | 10.5 µM | Yes | -4.8 |  |  |
| CCCOc1ccc(C(=O)OCCN(CC)CC)cc1N [Proparacaine, 2-(diethylamino)ethyl 3-amino-4-propoxybenzoate] |  | 0 °C |  |  |  | 2470 µM | Yes | 8.56 | millimolar concentrations |  |
| COc1ccc(CN(CCN(C)C)c2ccccn2)cc1 [Pyrilamine, N-[2-(dimethylamino)ethyl]-N-[(4-methoxyphenyl)methyl]pyridin-2-amine] |  | 0 °C |  |  |  | 214 µM | Yes | 8.76 |  |  |
| CCOc1cc(CC(=O)NC(CC(C)C)c2ccccc2N2CCCCC2)ccc1C(=O)O (centres unmarked) [Repaglinide, 2-ethoxy-4-[2-({3-methyl-1-[2-(1-piperidinyl)phenyl]butyl}amino)-2-oxoethyl]benzoic acid] |  | -0.84 ± 1.5 °C |  |  |  | 86.5 µM | Yes | 4.28 |  |  |
| CC1=C(/C=C/C(C)=C/C=C/C(C)=C/CO)C(C)(C)CCC1 [Retinol, (2E,4E,6E,8E)-3,7-dimethyl-9-(2,6,6-trimethylcyclohex-1-en-1-yl)nona-2,4,6,8-tetraen-1-ol] |  | 0.81 ± 0.3 °C |  |  |  | 52.5 µM | Yes | -2.2 |  |  |
| CCCCNc1ccc(C(=O)OCCN(C)C)cc1 [Tetracaine, 2-(dimethylamino)ethyl 4-(butylamino)benzoate] |  | -1.20 ± 0.5 °C |  |  |  | 333 µM | Yes | 8.42 |  |  |
| CC(CN(C)C)CN1c2ccccc2CCc2ccccc21 (centres unmarked) [Trimipramine, (3-{2-azatricyclo[9.4.0.0³,^8]pentadeca-1(15),3,5,7,11, 13-hexaen-2-yl}-2-methylpropyl)dimethylamine] |  | 0.56 ± 0.0 °C |  |  |  | 268 µM | Yes | 9.42 |  |  |
| COC(=O)[C@@H]1[C@H]2C[C@H]3c4[nH]c5ccccc5c4CCN3C[C@@H]2CC[C@@H]1O [Yohimbine, methyl (1S,15R,18S,19R,20S)-18-hydroxy-3,13-diazapentacyclo [11.8.0.0^2,^10.0^4,^9.0^15,^20]henicosa-2(10),4,6,8-tetraene-19-carboxylate] |  |  |  | 1.52 ± 0.6 °C |  |  | Yes | 7.65 |  | 200 µM |
| COc1cc(C(=O)NS(=O)(=O)c2ccccc2C)ccc1Cc1cn(C)c2ccc(NC(=O)OC3CCCC3)cc12 [Zafirlukast, cyclopentyl N-[3-({2-methoxy-4-[(2-methylbenzenesulfonyl)carbamoyl]phenyl}methyl)-1-methyl-1H-indol-5-yl]carbamate] |  | 1.80 ± 0.4 °C |  |  |  | 3.1 µM | Yes | -1.1 |  |  |
